From patent US20240116985A1, “STAPLED PEPTIDES AND METHODS THEREOF” (priority 2020, published 2024) come the findings set out here.

The target in the first experiment is T1, full-length beta-Catenin (Uniprot ID P35222) (Homo sapiens, UniProt P35222).
T1 construct: 10 nM full-length beta-Catenin (Uniprot ID P35222)
T1 sequence (P35222 1-781): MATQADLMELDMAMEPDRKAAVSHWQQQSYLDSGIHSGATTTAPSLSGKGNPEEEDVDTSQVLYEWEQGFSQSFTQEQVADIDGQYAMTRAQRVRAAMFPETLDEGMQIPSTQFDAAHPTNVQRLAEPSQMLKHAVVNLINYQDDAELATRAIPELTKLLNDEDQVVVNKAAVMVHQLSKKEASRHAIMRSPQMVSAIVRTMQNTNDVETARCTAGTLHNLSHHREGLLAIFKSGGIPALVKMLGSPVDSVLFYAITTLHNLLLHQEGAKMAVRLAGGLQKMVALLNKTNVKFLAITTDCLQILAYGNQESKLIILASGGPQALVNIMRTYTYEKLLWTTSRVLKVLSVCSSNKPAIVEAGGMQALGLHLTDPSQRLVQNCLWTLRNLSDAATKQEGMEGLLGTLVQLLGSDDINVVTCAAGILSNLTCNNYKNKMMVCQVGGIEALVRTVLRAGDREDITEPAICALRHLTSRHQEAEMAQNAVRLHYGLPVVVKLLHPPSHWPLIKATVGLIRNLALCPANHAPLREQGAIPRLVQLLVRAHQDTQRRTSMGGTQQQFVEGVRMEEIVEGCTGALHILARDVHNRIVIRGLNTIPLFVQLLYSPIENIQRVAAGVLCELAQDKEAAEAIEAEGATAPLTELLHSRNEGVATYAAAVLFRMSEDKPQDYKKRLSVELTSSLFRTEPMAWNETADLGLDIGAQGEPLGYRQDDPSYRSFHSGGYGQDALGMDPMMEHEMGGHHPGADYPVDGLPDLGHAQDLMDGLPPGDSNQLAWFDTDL
The experiment is described as follows: Fluorescence polarization IC50 (beta-catenin / 5FAM-TCF4 10-53 competition). The experiment is classed as binding. As to conditions: fluorescence polarization; read-out: beta-Catenin FP IC50.
Turning to `CC(=O)N1CCC[C@]12CC=CCCCC1(CCCC=CCCCOC(=O)N3CC[C@@](C(=O)N[C@@H](Cc4ccccc4)C(=O)N[C@@H](Cc4csc5ccccc45)C(=O)N[C@@H](CCO)C(N)=O)(C3)NC(=O)[C@H](CC(N)=O)NC(=O)[C@H](Cc3ccccc3C(N)=O)NC(=O)[C@H](C)NC(=O)[C@H](CCCCNC(C)C)NC(=O)[C@H](CCC(N)=O)NC(=O)[C@H](CC(=O)O)NC1=O)NC(=O)[C@H](CC1CCCCC1)NC(=O)[C@H](CC(N)=O)NC2=O` (stereo partly drawn) [I-2173, Ac-PL3-Asn-Cha-B5-Asp-Gln-iPrLys-Ala-2cbmf-Asn-PyrS2-Phe-BztA-Hse-NH2], the IC50 was 3070 nM.
The same measure, in the same setting: next, `CC(=O)N1CCC[C@]12CC=CCCCC1(CCCC=CCCCOC(=O)N3CC[C@@](C(=O)N[C@@H](Cc4ccsc4)C(=O)N[C@@H](Cc4c[nH]c5ccccc45)C(=O)N[C@@H](CCC(N)=O)C(N)=O)(C3)NC(=O)[C@H](CC(N)=O)NC(=O)[C@H](Cc3ccccc3)NC(=O)[C@H](C)NC(=O)[C@H](C)NC(=O)[C@H](CC(=O)O)NC(=O)[C@H](CC(=O)O)NC1=O)NC(=O)[C@H](CC(C)(C)C)NC(=O)[C@H](CC(=O)O)NC2=O` (stereo partly drawn) [I-2175, Ac-PL3-Asp-Npg-B5-Asp-Asp-Ala-Ala-Phe-Asn-PyrS2-3Thi-Trp-Gln-NH2]: 19 nM.
With `CC(=O)N1CCC[C@]12CC=CCCCC1(CCCC=CCCCOC(=O)N3CC[C@@](C(=O)N[C@@H](Cc4ccsc4)C(=O)N[C@@H](Cc4c[nH]c5cccc(Cl)c45)C(=O)N[C@@H](CCC(N)=O)C(N)=O)(C3)NC(=O)[C@H](CC(N)=O)NC(=O)[C@H](Cc3ccccc3)NC(=O)[C@H](C)NC(=O)[C@H](C)NC(=O)[C@H](CC(=O)O)NC(=O)[C@H](CC(=O)O)NC1=O)NC(=O)[C@H](CC(C)(C)C)NC(=O)[C@H](CC(=O)O)NC2=O` (stereo partly drawn) [I-2176, Ac-PL3-Asp-Npg-B5-Asp-Asp-Ala-Ala-Phe-Asn-PyrS2-3Thi-4C1W-Gln-NH2], the IC50 is 87 nM.
On the same count and under the same terms, next, `CC(=O)N1CCC[C@]12CC=CCCCC1(CCCC=CCCCOC(=O)N3CC[C@@](C(=O)N[C@@H](Cc4ccsc4)C(=O)N[C@@H](Cc4c[nH]c5cccc(Cl)c45)C(=O)N[C@@H](CCC(N)=O)C(N)=O)(C3)NC(=O)[C@H](CC(C)C)NC(=O)[C@H](Cc3ccccc3)NC(=O)[C@H](C)NC(=O)[C@H](C)NC(=O)[C@H](CC(=O)O)NC(=O)[C@H](CC(=O)O)NC1=O)NC(=O)[C@H](CC(C)(C)C)NC(=O)[C@H](CC(=O)O)NC2=O` (stereo partly drawn) [I-2177, Ac-PL3-Asp-Npg-B5-Asp-Asp-Ala-Ala-Phe-Leu-PyrS2-3Thi-4C1W-Gln-NH2]: 253 nM.
Still for that read-out and setting: next, `CC(=O)N1CCC[C@]12CC=CCCCC1(CCCC=CCCCOC(=O)N3CC[C@@](C(=O)N[C@@H](Cc4ccsc4)C(=O)N[C@@H](Cc4c[nH]c5cccc(F)c45)C(=O)N[C@@H](CCC(N)=O)C(N)=O)(C3)NC(=O)[C@H](CC(N)=O)NC(=O)[C@H](Cc3ccccc3)NC(=O)[C@H](C)NC(=O)[C@H](C)NC(=O)[C@H](CC(=O)O)NC(=O)[C@H](CC(=O)O)NC1=O)NC(=O)[C@H](CC(C)(C)C)NC(=O)[C@H](CC(=O)O)NC2=O` (stereo partly drawn) [I-2178, Ac-PL3-Asp-Npg-B5-Asp-Asp-Ala-Ala-Phe-Asn-PyrS2-3Thi-4FW-Gln-NH2]: 42 nM; `CC(=O)N1CCC[C@]12CC=CCCCC1(CCCC=CCCCOC(=O)N3CC[C@@](C(=O)N[C@@H](Cc4ccsc4)C(=O)N[C@@H](Cc4c[nH]c5cccc(F)c45)C(=O)N[C@@H](CCC(N)=O)C(N)=O)(C3)NC(=O)[C@H](CC(C)C)NC(=O)[C@H](Cc3ccccc3)NC(=O)[C@H](C)NC(=O)[C@H](C)NC(=O)[C@H](CC(=O)O)NC(=O)[C@H](CC(=O)O)NC1=O)NC(=O)[C@H](CC(C)(C)C)NC(=O)[C@H](CC(=O)O)NC2=O` (stereo partly drawn) [I-2179, Ac-PL3-Asp-Npg-B5-Asp-Asp-Ala-Ala-Phe-Leu-PyrS2-3Thi-4FW-Gln-NH2]: 67 nM; `CC(=O)N1CCC[C@]12CC=CCCCC1(CCCC=CCCCOC(=O)N3CC[C@@](C(=O)N[C@@H](Cc4ccsc4)C(=O)N[C@@H](Cc4c[nH]c5ncccc45)C(=O)N[C@@H](CCC(N)=O)C(N)=O)(C3)NC(=O)[C@H](CC(N)=O)NC(=O)[C@H](Cc3ccccc3)NC(=O)[C@H](C)NC(=O)[C@H](C)NC(=O)[C@H](CC(=O)O)NC(=O)[C@H](CC(=O)O)NC1=O)NC(=O)[C@H](CC(C)(C)C)NC(=O)[C@H](CC(=O)O)NC2=O` (stereo partly drawn) [I-2180, Ac-PL3-Asp-Npg-B5-Asp-Asp-Ala-Ala-Phe-Asn-PyrS2-3Thi-7AzaW-Gln-NH2]: 2090 nM.
With `CC(=O)N1CCC[C@]12CC=CCCCC1(CCCC=CCCCOC(=O)N3CC[C@@](C(=O)N[C@@H](Cc4ccsc4)C(=O)N[C@@H](Cc4c[nH]c5ncccc45)C(=O)N[C@@H](CCC(N)=O)C(N)=O)(C3)NC(=O)[C@H](CC(C)C)NC(=O)[C@H](Cc3ccccc3)NC(=O)[C@H](C)NC(=O)[C@H](C)NC(=O)[C@H](CC(=O)O)NC(=O)[C@H](CC(=O)O)NC1=O)NC(=O)[C@H](CC(C)(C)C)NC(=O)[C@H](CC(=O)O)NC2=O` (stereo partly drawn) [I-2181, Ac-PL3-Asp-Npg-B5-Asp-Asp-Ala-Ala-Phe-Leu-PyrS2-3Thi-7AzaW-Gln-NH2], the IC50 came out at 2880 nM.
`CC(=O)N1CCC[C@]12CC=CCCCC1(CCCC=CCCCOC(=O)N3CC[C@@](C(=O)N[C@@H](Cc4ccsc4)C(=O)N[C@@H](Cc4csc5ccccc45)C(=O)N[C@@H](CC(C)(C)C)C(N)=O)(C3)NC(=O)[C@H](CC(C)C)NC(=O)[C@H](Cc3ccccc3)NC(=O)[C@H](C)NC(=O)[C@H](CC(=O)N(C)C)NC(=O)[C@H](Cc3cccc(C(=O)O)c3)NC(=O)[C@H](CC(=O)O)NC1=O)NC(=O)[C@H](CC(C)(C)C)NC(=O)[C@H](CC(=O)O)NC2=O` (stereo partly drawn) [I-2196, Ac-PL3-Asp-Npg-B5-Asp-3COOHF-Me2Asn-Ala-Phe-Leu-PyrS2-3Thi-BztA-Npg-NH2]: the IC50 was 41 nM.
The same measure, in the same setting: the same measure for `CC(=O)N1CCC[C@]12CC=CCCCC1(CCCC=CCCOC(=O)N3CC[C@@](C(=O)N[C@@H](Cc4ccsc4)C(=O)N[C@@H](Cc4csc5ccccc45)C(=O)N[C@@H](CCC(N)=O)C(N)=O)(C3)NC(=O)[C@H](CC(N)=O)NC(=O)[C@H](Cc3ccccc3)NC(=O)[C@H](C)NC(=O)[C@H](C)NC(=O)[C@H]([C@@H](C)O)NC(=O)[C@H](CC(N)=O)NC1=O)NC(=O)[C@H](CC(C)(C)C)NC(=O)[C@H](CC(=O)O)NC2=O` (stereo partly drawn) [I-2197, Ac-PL3-Asp-Npg-B5-Asn-Thr-Ala-Ala-Phe-Asn-PyrS1-3Thi-BztA-Gln-NH2]: 2450 nM.
As to `CC(=O)N1CCC[C@]12CC=CCCCC1(CCCC=CCCOC(=O)N3CC[C@@](C(=O)N[C@@H](Cc4ccsc4)C(=O)N[C@@H](Cc4csc5ccccc45)C(=O)N[C@@H](CCC(N)=O)C(N)=O)(C3)NC(=O)[C@H](CC(N)=O)NC(=O)[C@H](Cc3ccccc3)NC(=O)[C@H](C)NC(=O)[C@H](C)NC(=O)[C@H]([C@@H](C)O)NC(=O)[C@H](CC(N)=O)NC1=O)NC(=O)[C@H](CC(C)(C)C)NC(=O)[C@H](CC(=O)O)NC2=O` (stereo partly drawn) [I-2198, Ac-PL3-Asp-Npg-B5-Asn-Thr-Ala-Ala-Phe-Asn-PyrS1-3Thi-BztA-Gln-NH2], the half-inhibitory concentration (IC50) was determined as 1470 nM.
Take `CC(=O)N1CCC[C@]12CC=CCCCC1(CCCC=CCCCCOC(=O)N3CC[C@@](C(=O)N[C@@H](Cc4ccsc4)C(=O)N[C@@H](Cc4csc5ccccc45)C(=O)N[C@@H](CCC(N)=O)C(N)=O)(C3)NC(=O)[C@H](CC(N)=O)NC(=O)[C@H](Cc3ccccc3)NC(=O)[C@H](C)NC(=O)[C@H](C)NC(=O)[C@H]([C@@H](C)O)NC(=O)[C@H](CC(N)=O)NC1=O)NC(=O)[C@H](CC(C)(C)C)NC(=O)[C@H](CC(=O)O)NC2=O` (stereo partly drawn) [I-2199, Ac-PL3-Asp-Npg-B5-Asn-Thr-Ala-Ala-Phe-Asn-PyrS3-3Thi-BztA-Gln-NH2]: the half-maximal inhibitory concentration (IC50) was found to be 927 nM.
The same measure, in the same setting: the same measure for `CC(=O)N1CCC[C@]12CC=CCCCC1(CCCC=CCCCCC[C@@](C)(C(=O)N[C@@H](Cc3ccsc3)C(=O)N[C@@H](Cc3csc4ccccc34)C(=O)N[C@@H](CCC(N)=O)C(N)=O)NC(=O)[C@H](CC(N)=O)NC(=O)[C@H](Cc3ccccc3)NC(=O)[C@H](C)NC(=O)[C@H](C)NC(=O)[C@H]([C@@H](C)O)NC(=O)[C@H](CC(N)=O)NC1=O)NC(=O)[C@H](CC(C)(C)C)NC(=O)[C@H](CC(=O)O)NC2=O` (stereo partly drawn) [I-2200, Ac-PL3-Asp-Npg-B5-Asn-Thr-Ala-Ala-Phe-Asn-S7-3Thi-BztA-Gln-NH2]: 8400 nM.

The experiment is the same for the next values; noted with them: read-out: beta-Catenin FP IC50.
Consider `CC(=O)N1CCC[C@]12CC=CCCCC1(CCCC=CCCCOC(=O)N3CC[C@@](C(=O)N[C@@H](Cc4ccsc4)C(=O)N[C@@H](Cc4csc5ccccc45)C(=O)NC(CCCCNC(=O)c4ccc5c(c4)B(O)OC5)C(N)=O)(C3)NC(=O)[C@H](CC(C)C)NC(=O)[C@H](Cc3ccccc3)NC(=O)[C@H](C)NC(=O)[C@H](C)NC(=O)[C@H](CN(CC(=O)O)CC(F)(F)F)NC(=O)[C@H](CC(=O)O)NC1=O)NC(=O)[C@H](CC(C)(C)C)NC(=O)[C@H](CC(=O)O)NC2=O` (stereo partly drawn) [I-2186, Ac-PL3-Asp-Npg-B5-Asp-TfeGA-Ala-Ala-Phe-Leu-PyrS2-3Thi-BztA-BnBoroleK-NH2], for which the half-maximal inhibitory concentration (IC50) stood at 459 nM.
